Columns and labels:
[1] = target: T1, Alpha-1A adrenergic receptor (Rattus norvegicus, UniProt P43140); assay: DRUGMATRIX: Alpha-1A adrenergic receptor radioligand binding (ligand: prazosin); assay type: cell membranes, Wistar, Submaxillary gland, Membrane; conditions: Not Active = under 50% inhibition at 10 µM
T1 sequence (P43140 whole entry): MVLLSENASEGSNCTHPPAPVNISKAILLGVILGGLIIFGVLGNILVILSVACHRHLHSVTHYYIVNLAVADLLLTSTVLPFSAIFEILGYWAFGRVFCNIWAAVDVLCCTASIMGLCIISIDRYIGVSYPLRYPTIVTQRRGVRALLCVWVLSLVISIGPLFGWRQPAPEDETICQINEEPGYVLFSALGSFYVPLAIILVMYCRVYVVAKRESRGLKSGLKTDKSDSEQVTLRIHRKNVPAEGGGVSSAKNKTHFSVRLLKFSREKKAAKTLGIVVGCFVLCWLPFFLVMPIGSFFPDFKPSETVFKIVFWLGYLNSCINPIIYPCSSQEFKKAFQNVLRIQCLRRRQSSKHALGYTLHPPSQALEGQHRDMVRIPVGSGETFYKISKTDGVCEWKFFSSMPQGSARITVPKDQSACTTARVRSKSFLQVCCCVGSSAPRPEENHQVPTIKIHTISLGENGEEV

[2] = target: T2, B2 bradykinin receptor (Homo sapiens, UniProt P30411); assay type: cell membranes, Membrane; conditions: chem-1; note: in other assays of this panel Not Active means under 50% inhibition at 10 µM
T2 sequence (P30411 whole entry): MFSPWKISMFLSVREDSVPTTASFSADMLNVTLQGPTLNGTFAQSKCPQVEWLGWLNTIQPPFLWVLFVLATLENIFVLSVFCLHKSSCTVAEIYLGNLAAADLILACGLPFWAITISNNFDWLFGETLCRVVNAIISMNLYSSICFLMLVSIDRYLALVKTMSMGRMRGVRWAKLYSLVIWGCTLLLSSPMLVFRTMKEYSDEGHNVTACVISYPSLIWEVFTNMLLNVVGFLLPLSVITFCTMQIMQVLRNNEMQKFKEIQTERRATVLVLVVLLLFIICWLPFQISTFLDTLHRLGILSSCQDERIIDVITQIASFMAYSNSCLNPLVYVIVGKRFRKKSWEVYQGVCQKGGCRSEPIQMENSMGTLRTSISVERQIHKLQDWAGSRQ

[3] = target: Melanocortin receptor 5 (Homo sapiens, UniProt P33032); assay type: cell membranes, Membrane; conditions: hek293; note: in other assays of this panel Not Active means under 50% inhibition at 10 µM
[4] = target: T3, Muscarinic acetylcholine receptor M4 (Homo sapiens, UniProt P08173); assay type: cell membranes, CHO-K1, Membrane; conditions: cho-k1; note: in other assays of this panel Not Active means under 50% inhibition at 10 µM
T3 sequence (P08173 whole entry): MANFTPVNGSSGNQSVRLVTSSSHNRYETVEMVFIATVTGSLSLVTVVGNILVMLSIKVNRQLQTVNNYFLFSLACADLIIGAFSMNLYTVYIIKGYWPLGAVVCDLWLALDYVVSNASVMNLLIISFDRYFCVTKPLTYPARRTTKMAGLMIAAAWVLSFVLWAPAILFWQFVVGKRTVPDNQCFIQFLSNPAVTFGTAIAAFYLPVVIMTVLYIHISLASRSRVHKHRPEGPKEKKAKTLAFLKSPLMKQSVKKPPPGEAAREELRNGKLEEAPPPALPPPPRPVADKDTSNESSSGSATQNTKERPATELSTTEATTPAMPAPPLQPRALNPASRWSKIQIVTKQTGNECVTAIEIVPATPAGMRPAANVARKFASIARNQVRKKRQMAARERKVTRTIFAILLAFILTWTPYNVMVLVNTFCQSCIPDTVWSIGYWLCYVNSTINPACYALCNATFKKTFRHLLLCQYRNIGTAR

[5] = target: T4, Caspase-1 (Homo sapiens, UniProt P29466); parameters: species or system Escherichia coli;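 note: Caspase-1 enzyme inhibition assay with a peptide substrate; in other assays of this panel Not Active means under 50% inhibition at 10 µM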
T4 sequence (P29466 whole entry): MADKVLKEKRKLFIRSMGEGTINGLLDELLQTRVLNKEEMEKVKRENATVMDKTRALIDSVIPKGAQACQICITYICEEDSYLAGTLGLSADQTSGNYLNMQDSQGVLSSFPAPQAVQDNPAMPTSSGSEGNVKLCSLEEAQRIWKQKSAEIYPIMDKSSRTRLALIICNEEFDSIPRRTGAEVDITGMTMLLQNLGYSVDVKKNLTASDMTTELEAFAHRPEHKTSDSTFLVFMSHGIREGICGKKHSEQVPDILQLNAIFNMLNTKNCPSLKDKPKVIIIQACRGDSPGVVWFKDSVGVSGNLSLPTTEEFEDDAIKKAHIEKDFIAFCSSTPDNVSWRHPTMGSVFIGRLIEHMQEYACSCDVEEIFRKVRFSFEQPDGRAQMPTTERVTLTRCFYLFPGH

[6] = target: Tyrosine-protein kinase Fyn (Homo sapiens, UniProt P06241); assay: biochemical; assay type: cell-based, Insect cells; conditions: insect cells

Measured: IC50

Melanocortin receptor 5, sequence (P33032 whole entry): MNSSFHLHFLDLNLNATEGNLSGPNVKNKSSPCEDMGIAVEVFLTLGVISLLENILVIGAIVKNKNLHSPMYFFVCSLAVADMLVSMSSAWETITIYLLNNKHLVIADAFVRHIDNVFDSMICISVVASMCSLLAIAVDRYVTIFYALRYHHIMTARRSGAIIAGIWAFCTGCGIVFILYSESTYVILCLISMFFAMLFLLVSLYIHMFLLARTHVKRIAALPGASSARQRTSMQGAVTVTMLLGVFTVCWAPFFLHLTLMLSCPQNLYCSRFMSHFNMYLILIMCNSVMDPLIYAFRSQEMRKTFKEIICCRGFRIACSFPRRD
Tyrosine-protein kinase Fyn, sequence (P06241 whole entry): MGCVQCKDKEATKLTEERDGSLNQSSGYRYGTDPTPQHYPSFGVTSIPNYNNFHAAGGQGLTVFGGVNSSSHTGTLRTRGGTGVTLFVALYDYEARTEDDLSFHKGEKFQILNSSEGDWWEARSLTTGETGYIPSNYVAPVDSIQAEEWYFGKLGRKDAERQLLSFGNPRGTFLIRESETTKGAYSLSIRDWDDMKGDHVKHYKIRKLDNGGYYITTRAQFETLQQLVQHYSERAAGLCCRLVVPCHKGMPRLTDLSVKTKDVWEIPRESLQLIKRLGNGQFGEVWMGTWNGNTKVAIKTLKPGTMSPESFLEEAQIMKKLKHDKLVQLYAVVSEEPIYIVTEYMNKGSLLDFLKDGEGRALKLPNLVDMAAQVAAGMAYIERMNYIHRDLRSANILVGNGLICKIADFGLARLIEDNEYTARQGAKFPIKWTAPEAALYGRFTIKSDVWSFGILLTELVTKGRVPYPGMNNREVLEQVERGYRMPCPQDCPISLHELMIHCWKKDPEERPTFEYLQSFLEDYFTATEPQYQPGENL

O=S(=O)([O-])CCS.[Na+] [MESNA]
Not Active: all assays above

C#C[C@]1(O)CC[C@H]2[C@@H]3CCc4cc(OC)ccc4[C@H]3CC[C@@]21C [MESTRANOL]
Not Active: all assays above

CC(=O)Nc1cccc(O)c1 [METACETAMOL]
Not Active: all assays above

Cc1ncc([N+](=O)[O-])n1CCO [METRONIDAZOLE]
Not Active: all assays above

CC(C)(C(=O)c1cccnc1)c1cccnc1 [METYRAPONE]
Not Active: all assays above

Oc1ccc(OCc2ccccc2)cc1 [MONOBENZONE]
Not Active: all assays above

CC(C)(Oc1ccc(C2CCCc3ccccc32)cc1)C(=O)O (configuration not stated) [NAFENOPIN]
Not Active: all assays above

COc1ccc2cc([C@H](C)C(=O)O)ccc2c1 [NAPROXEN]
Not Active: all assays above

CC(C)[C@H]1CC[C@H](C(=O)N[C@H](Cc2ccccc2)C(=O)O)CC1 [NATEGLINIDE]
Not Active: all assays above

CCN[C@@H]1C[C@H](N)[C@@H](O[C@H]2OC(CN)=CC[C@H]2N)[C@H](O)[C@H]1O[C@H]1OC[C@](C)(O)[C@H](NC)[C@H]1O [NETILMICIN]
Not Active: all assays above

COC(=O)C1=C(C)NC(C)=C(C(=O)OCC(C)C)C1c1ccccc1[N+](=O)[O-] (configuration not stated) [NISOLDIPINE]
Not Active: all assays above

CCOC(=O)C1=C(C)NC(C)=C(C(=O)OC)C1c1cccc([N+](=O)[O-])c1 (configuration not stated) [NITRENDIPINE]
Not Active: all assays above

C#C[C@]1(OC(C)=O)CC[C@H]2[C@@H]3CCC4=CC(=O)CC[C@@H]4[C@H]3CC[C@@]21C [NORETHINDRONE ACETATE]
Not Active: all assays above

COc1ccc2[nH]c([S+]([O-])Cc3ncc(C)c(OC)c3C)nc2c1 (configuration not stated) [OMEPRAZOLE]
Not Active: all assays above

Cc1nccn1CC1CCc2c(c3ccccc3n2C)C1=O (configuration not stated) [ONDANSETRON]
Not Active: all assays above

CCn1cc(C(=O)O)c(=O)c2cc(F)c(N3CCN(C)CC3)cc21 [PEFLOXACIN]
Not Active: all assays above

CCCCOc1ccc(OCCCN2CCOCC2)cc1 [PRAMOXINE]
Not Active: all assays above
